In patent US4381304A, “4,9-Dihydro-4,9-dioxo-1H-cyclohepta[b]pyridine derivatives” (Ayerst, McKenna & Harrison, Inc., priority 1981, dated 1983):
Read-outs that look alike come from different tables or passages of the source.

Key:
[1] = stability of the salt in the presence of acid; assay type: physicochemical
Method: A mixture of 3-{[N-(methoxycarbonylmethyl)-N-methylamino]carbonyl}-4,9-dihydro-4,9-dioxo-1H-cyclohepta[b]pyridine-1-acetic acid ethyl ester (2.36 g, described in example 6) and 2% aqueous sodium hydroxide (w/v, 25 ml) was stirred at 25° C. for 4 hr. Evaporation of the reaction mixture gave the title disodium salt. […] The salt had mp>250° C.; nmr (D2 O) δ3.0 (d, 3H), 4.0 (d, 2H), 4.7 (s, 2H), 6.8-8.3 (m, 5H); ir (Nujol*) 3400, 3150, 1610 cm^-1 (with inflections at 1625 and 1585 cm^-1); uv λ max (MeOH) 340 nm (ε7,390), 237 (13,000); Anal Calcd for C16 H12 N2 O7 Na2.3H2 O: C, 43.24% H, 4.08% […]; Found: C, 42.76% H, 3.57%, N, 7.18%.

[2] = tested on: aldose reductase; details: literature report; cited from earlier work
[3] = tested on: diabetic complications such as diabetic cataracts, neuropathy, nephropathy and retinopathy; details: literature report (U.S. Pat. No. 3,821,383); cited from earlier work
[4] = biological target: T1, aldose reductase (Bos taurus, UniProt P16116); test: in vitro aldose reductase inhibition (modified Hayman and Kinoshita procedure); assay type: biochemical, bovine (lens); details: for inhibition at 10 µM: read-out: % Inhibition at Different Molar Concentrations (in vitro), 10^-5; for inhibition at 1 µM: 10^-6 molar, read-out: % Inhibition at Different Molar Concentrations (in vitro), 10^-6; for inhibition at 0.1 µM: 10^-7 molar, read-out: % Inhibition at Different Molar Concentrations (in vitro), 10^-7
T1 construct: preparation of the enzyme from bovine lens; from tissue; host or cells: bovine lens
Excerpt: In the present case the procedure of Hayman and Kinoshita is modified in that the final chromatography step is omitted in the preparation of the enzyme from bovine lens.

[5] = 10^-5 molar, enzyme from bovine lens

Row | Compound | inhibition at 10 µM [4, 5] | inhibition at 1 µM ([4]; enzyme from bovine lens) | inhibition at 0.1 µM ([4]; enzyme from bovine lens) | further results
1 | CN(CC(=O)[O-])C(=O)c1cn(CC(=O)[O-])c2c(=O)ccccc2c1=O.[Na+].[Na+] | – | – | – | stability in the presence of acid [1]: decomposed in the presence of acid
2 | O=C(O)CN1C(=O)c2cccc3cccc(c23)C1=O [1,3-Dioxo-1H-benz[de]isoquinoline-2(3H)-acetic acid] | – | – | – | aldose reductase inhibition (in words) [2]: effective inhibitor of aldose reductase; usefulness for the treatment of diabetic complications (in words) [3]: useful for the treatment of diabetic complications such as diabetic cataracts, neuropathy, nephropathy and retinopathy
3 | CN(CC(=O)[O-])C(=O)c1cn(CC(=O)[O-])c2c(=O)ccccc2c1=O.[Na+].[Na+] [Disodium Salt] | – | – | – | inhibition at 10 µM [4]: 22%
4 | O=C(O)Cn1cc(C(=O)O)c(=O)c2cc(O)ccc(=O)c21 [Example 4 (R^1 COOH, R^2 6-OH), 3-carboxy-4,9-dihydro-6-hydroxy-4,9-dioxo-1H-cyclohepta[b]pyridine-1-acetic acid] | 84% | 53% | 16% | –
5 | O=C(O)Cn1cc(C(=O)O)c(=O)c2cccc(Br)c(=O)c21 [Example 4 (R^1 COOH, R^2 8-Br), 8-bromo-3-carboxy-4,9-dihydro-4,9-dioxo-1H-cyclohepta[b]pyridine-1-acetic acid] | 81% | 47% | 14% | –
6 | O=C(O)Cn1cc(C(=O)O)c(=O)c2ccccc(=O)c21 [Example 4 (R^1 COOH, R^2 H), 3-Carboxy-4,9-dihydro-4,9-dioxo-1H-cyclohepta[b]pyridine-1-acetic Acid] | 89% | 65% | 19% | –
7 | O=C1NC(=O)[C@@]2(CCOc3ccc(F)cc32)N1 [sorbinil, (S)-6-Fluoro-2,3-dihydrospiro(4H-1-benzopyran-4,4'-imidazolidine)-2',5'-dione] | – | – | – | aldose reductase inhibition (in words) [2]: aldose reductase inhibiting properties
